Measurements from ChEMBL document CHEMBL5046268, “Synthesis, Biological Evaluation, and Molecular Modeling Studies of 3,4-Diarylpyrazoline Series of Compounds as Potent, Nonbrain Penetrant Antagonists of Cannabinoid-1 (CB1R) Receptor with Reduced Lipophilicity” (J Med Chem, 2022).
Calls of active or inactive are those of the source. The rule behind the calls is not given here.

Tests used:
[1] = biological target: T1, Cannabinoid receptor 1 (Homo sapiens, UniProt P21554); experiment: Displacement of [3H]- CP55940 from human CB1R expressed in CHO-K1 cells membrane by Cheng-Prusoff equation analysis; format: cell membranes, Cell membrane
T1 sequence (P21554 whole entry): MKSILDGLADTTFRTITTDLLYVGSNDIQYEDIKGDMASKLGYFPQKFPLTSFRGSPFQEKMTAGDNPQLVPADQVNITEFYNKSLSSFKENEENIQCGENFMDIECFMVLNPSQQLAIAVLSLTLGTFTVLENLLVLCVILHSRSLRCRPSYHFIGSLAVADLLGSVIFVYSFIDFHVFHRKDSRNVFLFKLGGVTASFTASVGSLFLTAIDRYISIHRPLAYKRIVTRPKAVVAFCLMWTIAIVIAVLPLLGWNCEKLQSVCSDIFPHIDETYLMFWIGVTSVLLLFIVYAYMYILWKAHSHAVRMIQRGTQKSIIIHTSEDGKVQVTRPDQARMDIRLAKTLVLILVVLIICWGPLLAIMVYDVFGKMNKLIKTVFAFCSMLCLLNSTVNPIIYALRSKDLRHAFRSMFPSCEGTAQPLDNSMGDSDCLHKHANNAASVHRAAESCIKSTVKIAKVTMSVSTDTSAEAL

[2] = biological target: T1, Cannabinoid receptor 1; experiment: Antagonist activity at human CB1R expressed in CHO-K1 cell membranes assessed as stimulation of [35S]-GTPgammaS binding by liquid scintillation counting method; format: functional, Cell membrane
[3] = biological target: Cannabinoid receptor 2 (Homo sapiens, UniProt P34972); experiment: Displacement of [3H]- CP55940 from human CB2R expressed in CHO-K1 cells membrane by Cheng-Prusoff equation analysis; format: cell membranes, Cell membrane
Chain of Cannabinoid receptor 2 (P34972 whole entry): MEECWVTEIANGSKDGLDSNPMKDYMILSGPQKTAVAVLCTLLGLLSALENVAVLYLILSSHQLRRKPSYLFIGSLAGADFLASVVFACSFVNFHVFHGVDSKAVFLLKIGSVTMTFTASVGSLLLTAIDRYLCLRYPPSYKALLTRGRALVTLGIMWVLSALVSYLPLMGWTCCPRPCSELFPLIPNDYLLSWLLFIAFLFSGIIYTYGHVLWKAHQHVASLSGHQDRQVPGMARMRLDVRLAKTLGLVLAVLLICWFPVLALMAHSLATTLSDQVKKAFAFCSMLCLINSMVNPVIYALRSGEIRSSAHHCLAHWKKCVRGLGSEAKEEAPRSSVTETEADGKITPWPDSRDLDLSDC

[4] = biological target: Nitric oxide synthase, inducible (Homo sapiens) (UniProt P35228); experiment: Inhibition of recombinant iNOS (unknown origin) assessed as reduction in L-[3H]-citrulline level using L-[3H]-arginine as substrate at 10 uM by Enzymatic NOS activity assay
Chain of Nitric oxide synthase, inducible (Homo sapiens) (P35228 whole entry): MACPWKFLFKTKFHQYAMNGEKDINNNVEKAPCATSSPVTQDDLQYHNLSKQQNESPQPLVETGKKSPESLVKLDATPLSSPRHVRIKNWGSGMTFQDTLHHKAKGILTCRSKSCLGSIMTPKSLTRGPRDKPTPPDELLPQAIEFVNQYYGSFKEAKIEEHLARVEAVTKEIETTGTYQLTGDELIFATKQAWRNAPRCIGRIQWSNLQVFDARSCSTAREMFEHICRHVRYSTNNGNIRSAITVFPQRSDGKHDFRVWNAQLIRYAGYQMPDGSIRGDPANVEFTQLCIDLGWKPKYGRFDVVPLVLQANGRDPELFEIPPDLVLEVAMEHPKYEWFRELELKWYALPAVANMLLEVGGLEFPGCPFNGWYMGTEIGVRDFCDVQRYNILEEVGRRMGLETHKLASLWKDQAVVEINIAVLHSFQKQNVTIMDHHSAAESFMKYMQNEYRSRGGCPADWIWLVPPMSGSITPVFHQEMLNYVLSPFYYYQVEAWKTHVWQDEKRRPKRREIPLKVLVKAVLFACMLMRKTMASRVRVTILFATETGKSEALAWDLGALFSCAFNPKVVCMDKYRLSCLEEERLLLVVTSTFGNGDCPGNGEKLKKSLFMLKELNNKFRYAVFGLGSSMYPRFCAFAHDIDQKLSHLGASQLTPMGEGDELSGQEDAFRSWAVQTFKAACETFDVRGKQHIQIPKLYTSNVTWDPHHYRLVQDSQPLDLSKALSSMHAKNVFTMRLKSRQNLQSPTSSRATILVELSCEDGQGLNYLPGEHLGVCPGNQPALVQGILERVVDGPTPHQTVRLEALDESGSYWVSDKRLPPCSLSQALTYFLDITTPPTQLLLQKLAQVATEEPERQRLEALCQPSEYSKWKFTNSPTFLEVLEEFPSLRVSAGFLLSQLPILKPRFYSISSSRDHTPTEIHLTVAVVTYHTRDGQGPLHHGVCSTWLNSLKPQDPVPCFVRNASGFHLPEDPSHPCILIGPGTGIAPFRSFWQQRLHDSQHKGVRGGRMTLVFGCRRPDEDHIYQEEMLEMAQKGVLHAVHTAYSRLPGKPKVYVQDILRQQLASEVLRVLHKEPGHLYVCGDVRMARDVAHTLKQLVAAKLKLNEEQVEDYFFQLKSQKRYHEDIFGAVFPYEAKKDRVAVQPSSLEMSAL

[5] = biological target: T1, Cannabinoid receptor 1; experiment: Inverse agonist activity at human CB1R expressed in CHO-K1 cell membrane assessed as […] in [35S]GTPgammaS binding; format: functional, cell membranes
[6] = Drug distribution in C57BL/6J mouse plasma at 10 mg/kg, ip incubated for 1 hrs by LC/MS/MS analysis; format: ADME, organism-based; conditions: in vivo
[7] = Drug distribution in C57BL/6J mouse liver at 10 mg/kg, ip incubated for 1 hrs by LC/MS/MS analysis; format: ADME, organism-based; conditions: in vivo
[8] = Drug distribution in C57BL/6J mouse brain at 10 mg/kg, ip incubated for 1 hrs by LC/MS/MS analysis; format: ADME, organism-based; conditions: in vivo
[9] = Ratio of drug level in C57BL/6J mouse brain to plasma at 10 mg/kg, ip incubated for 1 hrs by LC/MS/MS analysis; format: ADME, organism-based; conditions: read-out: BPR

SMILES	Ki ([1]; read-out: Ki)	Ki ([3]; read-out: Ki)	IC50 ([2]; read-out: IC50)	inhibition [4]	other results
C/C(N)=N\C(=N\S(=O)(=O)N1CCCCC1)N1C[C@@H](c2ccccc2)C(c2ccc(Cl)cc2)=N1	610 nM	> 1000 nM			IC50 ([2]; cho-k1): Not Active
N/C(=N\C(=N\S(=O)(=O)N1CCOCC1)N1CC(c2ccccc2)C(c2ccc(Cl)cc2)=N1)c1ccc(F)cc1 (stereo unspecified)	39.9 nM	> 1000 nM	19 nM		
CC(C)(C)/C(N)=N\C(=N\S(=O)(=O)N1CCCCC1)N1CC(c2ccccc2)C(c2ccc(Cl)cc2)=N1 (stereo unspecified)	23 nM	> 1000 nM	129 nM		
CCN(CC)S(=O)(=O)/N=C(/N=C(\N)c1ccc(Cl)cc1)N1CC(c2ccccc2)C(c2ccc(Cl)cc2)=N1 (stereo unspecified)	10.8 nM	70 nM	86 nM	Active	
CC(C)(C)/C(N)=N/C(=N/S(=O)(=O)N1CCC(C(F)(F)F)CC1)N1CC(c2ccccc2)C(c2ccc(Cl)cc2)=N1 (stereo unspecified)	1.1 nM	> 100 nM	2 nM		IC50 [5]: 1.8 nM; Drug uptake [6]: Active; Drug uptake [7]: Active; Drug uptake [8]: Active; Kp at 1 h [9]: 0.15
N/C(=N\C(=N\S(=O)(=O)N1CCC(F)(F)CC1)N1CC(c2ccccc2)C(c2ccc(Cl)cc2)=N1)c1ccc(F)cc1 (stereo unspecified)	3.3 nM	28 nM	4.4 nM		
CC(C)(C)/C(N)=N/C(=N/S(=O)(=O)N1CCC(F)(F)CC1)N1CC(c2ccccc2)C(c2ccc(Cl)cc2)=N1 (stereo unspecified)	21 nM	> 1000 nM	10 nM		IC50 [5]: 3.2 nM; Drug uptake [6]: Active; Drug uptake [7]: Active; Drug uptake [8]: Active; Kp at 1 h [9]: 0.14
CCN(CC)S(=O)(=O)/N=C(/N=C(/C)N)N1C[C@@H](c2ccccc2)C(c2ccc(Cl)cc2)=N1					Ki ([1]; cho-k1): Not Active; IC50 ([2]; cho-k1): Not Active; Ki ([3]; cho-k1): Not Active
N/C(=N/C(=N/S(=O)(=O)N1CCCCC1)N1CC(c2ccccc2)C(c2ccc(Cl)cc2)=N1)c1ccc(Cl)cc1 (stereo unspecified)	7.8 nM	17 nM	6 nM		
C/C(N)=N/C(=N/S(=O)(=O)N1CCCC1)N1CC(c2ccccc2)C(c2ccc(Cl)cc2)=N1 (stereo unspecified)	7.4 nM	> 1000 nM	137 nM	Active	
CS/C(N)=N/C(=N/S(=O)(=O)N1CCOCC1)N1CC(c2ccccc2)C(c2ccc(Cl)cc2)=N1 (stereo unspecified)	41 nM	> 1000 nM	91 nM		
CCN(CC)S(=O)(=O)/N=C(/N=C(\N)C(C)(C)C)N1CC(c2ccccc2)C(c2ccc(Cl)cc2)=N1 (stereo unspecified)	10 nM	> 1000 nM	375 nM	Active	
C/C(N)=N/C(=N/S(=O)(=O)N1CCOCC1)N1CC(c2ccccc2)C(c2ccc(Cl)cc2)=N1 (stereo unspecified)	31 nM	> 1000 nM	63 nM		
CCN(CC)S(=O)(=O)/N=C(/N=C(\N)SC)N1CC(c2ccccc2)C(c2ccc(Cl)cc2)=N1 (stereo unspecified)	13 nM	70 nM	388 nM	Active	
CCN(CC)S(=O)(=O)/N=C(/N=C(\N)c1ccc(F)cc1)N1CC(c2ccccc2)C(c2ccc(Cl)cc2)=N1 (stereo unspecified)	5.5 nM	> 1000 nM	108 nM	Active	
CS/C(N)=N/C(=N/S(=O)(=O)N1CCCC1)N1CC(c2ccccc2)C(c2ccc(Cl)cc2)=N1 (stereo unspecified)	23 nM	> 1000 nM	462 nM	Active	
CS/C(N)=N/C(=N/S(=O)(=O)N1CCC(C(F)(F)F)CC1)N1C[C@@H](c2ccccc2)C(c2ccc(Cl)cc2)=N1	> 1000 nM	> 1000 nM			IC50 ([2]; cho-k1): Not Active

SMILES	Ki ([1]; read-out: Ki)	Ki ([3]; read-out: Ki)	IC50 ([2]; read-out: IC50)	inhibition [4]	other results
N/C(=N\C(=N\S(=O)(=O)N1CCC(C(F)(F)F)CC1)N1CC(c2ccccc2)C(c2ccc(Cl)cc2)=N1)c1ccc(Cl)cc1 (stereo unspecified)	5.5 nM	20 nM	5.4 nM		
CC(C)(C)/C(N)=N/C(=N/S(=O)(=O)N1CCCC1)N1CC(c2ccccc2)C(c2ccc(Cl)cc2)=N1 (stereo unspecified)	> 1000 nM	> 1000 nM	61 nM	Active	
CCN(CC)S(=O)(=O)/N=C(/N=C(/C)N)N1CC(c2ccccc2)C(c2ccc(Cl)cc2)=N1 (stereo unspecified)	5.9 nM	> 100 nM	1.9 nM	Active	Drug uptake [6]: Active; Drug uptake [7]: Active; Drug uptake [8]: Active; Kp at 1 h [9]: 0.025
C/C(N)=N\C(=N\S(=O)(=O)N1CCCCC1)N1CC(c2ccccc2)C(c2ccc(Cl)cc2)=N1 (stereo unspecified)	3 nM	> 100 nM	57 nM		Drug uptake [6]: Active; Drug uptake [7]: Active; Drug uptake [8]: Active; Kp at 1 h [9]: 0.04
CS/C(N)=N\C(=N\S(=O)(=O)N1CCCCC1)N1CC(c2ccccc2)C(c2ccc(Cl)cc2)=N1 (stereo unspecified)	15 nM	> 100 nM	166 nM		
N/C(=N\C(=N\S(=O)(=O)N1CCC(C(F)(F)F)CC1)N1CC(c2ccccc2)C(c2ccc(Cl)cc2)=N1)c1ccc(F)cc1 (stereo unspecified)	19.8 nM	14 nM	2.77 nM		
C/C(N)=N/C(=N/S(=O)(=O)N1CCC(C(F)(F)F)CC1)N1CC(c2ccccc2)C(c2ccc(Cl)cc2)=N1 (stereo unspecified)	3.9 nM	> 100 nM	273 nM		
C/C(N)=N\C(=N\S(=O)(=O)N1CCC(F)(F)CC1)N1CC(c2ccccc2)C(c2ccc(Cl)cc2)=N1 (stereo unspecified)	3.4 nM	> 100 nM	15 nM		
N/C(=N\C(=N\S(=O)(=O)N1CCC(F)(F)CC1)N1CC(c2ccccc2)C(c2ccc(Cl)cc2)=N1)c1ccc(Cl)cc1 (stereo unspecified)	5.5 nM	> 1000 nM	4.2 nM		IC50 [5]: 2.5 nM; Drug uptake [6]: Active; Drug uptake [7]: Active; Drug uptake [8]: Active; Kp at 1 h [9]: 0.14
CC(C)(C)/C(N)=N/C(=N/S(=O)(=O)N1CCOCC1)N1CC(c2ccccc2)C(c2ccc(Cl)cc2)=N1 (stereo unspecified)	> 100 nM	> 1000 nM	34 nM		
N/C(=N\C(=N\S(=O)(=O)N1CCCC1)N1CC(c2ccccc2)C(c2ccc(Cl)cc2)=N1)c1ccc(Cl)cc1 (stereo unspecified)	75.3 nM	> 1000 nM	427 nM	Active	
N/C(=N\C(=N\S(=O)(=O)N1CCOCC1)N1CC(c2ccccc2)C(c2ccc(Cl)cc2)=N1)c1ccc(Cl)cc1 (stereo unspecified)	19.2 nM	> 1000 nM	25 nM		
CS/C(N)=N\C(=N\S(=O)(=O)N1CCC(F)(F)CC1)N1CC(c2ccccc2)C(c2ccc(Cl)cc2)=N1 (stereo unspecified)	14 nM	> 100 nM	127 nM		
N/C(=N\C(=N\S(=O)(=O)N1CCCC1)N1CC(c2ccccc2)C(c2ccc(Cl)cc2)=N1)c1ccc(F)cc1 (stereo unspecified)	10.5 nM	> 1000 nM	115 nM	Active	
CS/C(N)=N/C(=N/S(=O)(=O)N1CCC(C(F)(F)F)CC1)N1CC(c2ccccc2)C(c2ccc(Cl)cc2)=N1 (stereo unspecified)	2.4 nM	> 100 nM	3.6 nM		Drug uptake [6]: Active; Drug uptake [7]: Active; Drug uptake [8]: Active; Kp at 1 h [9]: 0.036
N/C(=N/C(=N/S(=O)(=O)N1CCCCC1)N1CC(c2ccccc2)C(c2ccc(Cl)cc2)=N1)c1ccc(F)cc1 (stereo unspecified)	6.4 nM	36 nM	4 nM		
